The results in this text go back to patent publication US20200239530A1, “COMPOUNDS AND METHODS OF MODULATING PROTEIN DEGRADATION” (Vividion Therapeutics, Inc., priority 2017, published 2020).

Experiment [1] has as its target T1, ACAA2 3-ketoacyl-CoA thiolase, mitochondrial (Homo sapiens, UniProt P42765).
T1 construct: Cells were resuspended in cold PBS on ice and sonicated with a probe sonicator to achieve lysis; endogenous in cells
T1 sequence (P42765 1-397): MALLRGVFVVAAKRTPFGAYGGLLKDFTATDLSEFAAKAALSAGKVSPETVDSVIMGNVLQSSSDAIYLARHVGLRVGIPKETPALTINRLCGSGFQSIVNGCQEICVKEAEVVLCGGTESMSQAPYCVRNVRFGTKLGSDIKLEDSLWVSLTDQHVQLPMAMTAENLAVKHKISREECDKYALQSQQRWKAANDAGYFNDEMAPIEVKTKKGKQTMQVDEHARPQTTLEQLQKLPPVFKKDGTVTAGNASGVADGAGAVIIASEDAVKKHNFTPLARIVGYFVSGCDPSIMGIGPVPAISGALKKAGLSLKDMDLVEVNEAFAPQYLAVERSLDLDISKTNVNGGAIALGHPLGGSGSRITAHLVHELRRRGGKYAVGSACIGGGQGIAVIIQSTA
Kind of experiment: Cysteine liganding, probe competition. The format is binding. In outline: (§1)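 Lysates from probe-sonicated cells in PBS (5 mg/ml proteome) were exposed to compound for 1 hr at 25° C, then labelled with desthiobiotin iodoacetamide probe (10 mM stock) for 1 hr at 25° C. Probe-tagged peptides were streptavidin-enriched after trypsin digestion.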

In experiment [2] the target is T2, KIAA0528 Uncharacterized protein KIAA0528 (Homo sapiens, UniProt Q86YS7).
T2 construct: Cells were resuspended in cold PBS on ice and sonicated with a probe sonicator to achieve lysis; endogenous in cells
T2 sequence (Q86YS7 1-1000): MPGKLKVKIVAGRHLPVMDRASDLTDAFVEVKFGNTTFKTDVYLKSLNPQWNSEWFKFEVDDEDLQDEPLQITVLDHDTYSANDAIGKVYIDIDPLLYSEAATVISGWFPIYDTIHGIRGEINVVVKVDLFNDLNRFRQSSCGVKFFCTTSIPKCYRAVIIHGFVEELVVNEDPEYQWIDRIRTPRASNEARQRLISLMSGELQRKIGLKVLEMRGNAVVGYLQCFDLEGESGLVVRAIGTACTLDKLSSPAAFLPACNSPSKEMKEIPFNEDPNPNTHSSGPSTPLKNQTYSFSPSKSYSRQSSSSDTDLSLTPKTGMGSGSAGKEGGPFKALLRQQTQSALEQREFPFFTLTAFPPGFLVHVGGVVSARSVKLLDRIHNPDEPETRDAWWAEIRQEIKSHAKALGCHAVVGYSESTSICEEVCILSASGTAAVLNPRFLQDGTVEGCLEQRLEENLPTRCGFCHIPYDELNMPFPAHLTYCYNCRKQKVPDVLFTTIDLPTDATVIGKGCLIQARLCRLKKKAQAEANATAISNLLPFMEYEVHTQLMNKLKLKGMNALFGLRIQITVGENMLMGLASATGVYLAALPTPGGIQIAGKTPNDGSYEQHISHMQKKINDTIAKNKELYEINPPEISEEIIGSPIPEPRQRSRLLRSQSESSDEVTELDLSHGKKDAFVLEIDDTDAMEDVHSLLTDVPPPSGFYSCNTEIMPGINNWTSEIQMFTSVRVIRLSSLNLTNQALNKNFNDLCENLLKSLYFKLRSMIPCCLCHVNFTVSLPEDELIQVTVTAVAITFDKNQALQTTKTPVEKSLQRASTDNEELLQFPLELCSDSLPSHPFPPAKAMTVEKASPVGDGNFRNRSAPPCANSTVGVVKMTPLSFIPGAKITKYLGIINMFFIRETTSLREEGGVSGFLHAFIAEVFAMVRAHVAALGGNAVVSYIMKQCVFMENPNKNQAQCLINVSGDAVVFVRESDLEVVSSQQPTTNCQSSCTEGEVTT
The experiment in a line: Cysteine liganding, probe competition. It is filed as binding. In outline:
as §1

For `COc1ccc2c(c1)CCCN2C(=O)CCl` [KB02], the Liganded result is given as “YES” in experiment [1] (ACAA2 Res# 382, uniprot P42765) and “YES” in experiment [2] (KIAA0528 Res# 867, uniprot Q86YS7).

On to `O=C(CCl)Nc1cc(C(F)(F)F)cc(C(F)(F)F)c1` [KBO3], for which, in experiment [1] (uniprot P42765), the “100 Max” value came out at 3.45, the 100 ave turned out to be 3.45, the “500 Max” value is −0.69 and the 500 ave is on record as −0.69. In addition, in experiment [2] (uniprot Q86YS7), the 100 ave is reported as −6.4125, the “500 Max” value stood at 46.81 and the 500 ave is reported as 33.415. In experiment [2] (uniprot Q86YS7, unit assumed), the 100 Max was 7.23%.
